target: SMYD3 (Homo sapiens (Human), UniProt Q9H7B4); assay: SMYD3 biochemical assay (SPA, 3H-SAM methylation of MEKK2 protein substrate); conditions: Table 1A; IC50 values are an average of n = 1 to n = 50; read-out: SMYD3 Biochem IC50
Summary of the method: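 Native full-length human SMYD3 (E. coli-expressed, tags removed) was preincubated with compound for 30 min at room temperature in 25 mM Tris-Cl pH 8.0, 1 mM TCEP, 0.005% BSG, 0.005% Tween 20. Reaction was started with 3H-SAM plus GST-MEKK2, quenched with 100 uM unlabeled SAM, and read by SPA scintillation counting.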

| IC50 [µM] | SMILES |
| --- | --- |
| > 10 | CC(C)CN(C)c1cc(S(=O)(=O)N2CC[C@@H](NC(=O)c3cc(C4CC4)on3)C[C@@H]2C)ccn1 [compound 511, 5-cyclopropyl-N-((2S,4R)-1-((2-(isobutyl(methyl)amino)pyridin-4-yl)sulfonyl)-2-methylpiperidin-4-yl)isoxazole-3-carboxamide] |

same assay, conditions: read-out: SMYD3 Biochem IC50 (μM)*

| SMILES | IC50 [µM] |
| --- | --- |
| CCOC(=O)C1CN(C(=O)[C@H]2CC[C@H](N)CC2)CCC1NC(=O)c1cc(C2CC2)on1 (stereo partly drawn) [compound 151, ethyl 1-((1r,4r)-4-aminocyclohexane-1-carbonyl)-4-(5-cyclopropylisoxazole-3-carboxamido)piperidine-3-carboxylate] | 3.54 |
| NCCC(=O)NC[C@@H](Cc1ccc(O)c(I)c1)C(=O)N1CCC(NC(=O)c2cc(C3CC3)on2)CC1 [compound 34, (R)-N-(1-(3-(3-aminopropanamido)-2-(4-hydroxy-3-iodobenzyl)propanoyl)piperidin-4-yl)-5-cyclopropylisoxazole-3-carboxamide] | 1.64 |
| C[C@@H]1CC(NC(=O)c2cc(C3CC3)on2)CCN1C(=O)[C@@H]1CC[C@H](N)C1 (stereo partly drawn) [compound 96, N-((2R)-1-((1R,3S)-3-aminocyclopentane-1-carbonyl)-2-methylpiperidin-4-yl)-5-cyclopropylisoxazole-3-carboxamide] | 1.9 |
| NCC(=O)NC[C@@H](Cc1ccc(O)c(I)c1)C(=O)N1CCC(NC(=O)c2cc(C3CC3)on2)CC1 [compound 36, (R)-N-(1-(3-(2-aminoacetamido)-2-(4-hydroxy-3-iodobenzyl)propanoyl)piperidin-4-yl)-5-cyclopropylisoxazole-3-carboxamide] | 9.41 |
| C[C@H]1C[C@H](NC(=O)c2cc(C3CC3)on2)CCN1C(=O)CC1(CN)CCCCC1 [compound 266, N-((2S,4R)-1-(2-(1-(aminomethyl)cyclohexyl)acetyl)-2-methylpiperidin-4-yl)-5-cyclopropylisoxazole-3-carboxamide] | > 10 |
| C[C@H]1CC(NC(=O)c2cc(C3CC3)on2)CCN1C(=O)[C@H]1CC[C@H](N)CO1 (stereo partly drawn) [compound 131, N-((2S)-1-((2R,5S)-5-aminotetrahydro-2H-pyran-2-carbonyl)-2-methylpiperidin-4-yl)-5-cyclopropylisoxazole-3-carboxamide] | 2.08 |
| C[C@@H]1C[C@H](NC(=O)c2cc(C3CC3)on2)CCN1S(=O)(=O)N1CCN(C)CC1 [compound 255, 5-cyclopropyl-N-((2R,4R)-2-methyl-1-((4-methylpiperazin-1-yl)sulfonyl)piperidin-4-yl)isoxazole-3-carboxamide] | 1.2 |
| N[C@H]1CC[C@H](C(=O)N2[C@@H]3CC[C@H]2C[C@H](NC(=O)c2cc(C4CC4)on2)C3)CC1 [compound 101, N-((1R,3S,5S)-8-((1r,4R)-4-aminocyclohexane-1-carbonyl)-8-azabicyclo[3.2.1]octan-3-yl)-5-cyclopropylisoxazole-3-carboxamide] | > 10 |
| N[C@H]1C[C@@H](C(=O)N2CCC(NC(=O)c3cc(C4CC4)on3)CC2)C1 [compound 21, N-(1-((1s,3s)-3-aminocyclobutane-1-carbonyl)piperidin-4-yl)-5-cyclopropylisoxazole-3-carboxamide] | 5.69 |
| C[C@@H]1C[C@@H](NC(=O)c2cc(C3CC3)on2)CCN1C(=O)C1CCCC(CN)C1 (stereo partly drawn) [compound 343, N-((2R,4S)-1-(3-(aminomethyl)cyclohexane-1-carbonyl)-2-methylpiperidin-4-yl)-5-cyclopropylisoxazole-3-carboxamide] | 1.07 |
| N[C@@H](Cc1ccc(O)c(Br)c1)C(=O)N1CCC(NC(=O)c2cc(C3CC3)on2)CC1 [compound 9, (S)-N-(1-(2-amino-3-(3-bromo-4-hydroxyphenyl)propanoyl)piperidin-4-yl)-5-cyclopropylisoxazole-3-carboxamide] | 0.214 |
| CCOC(=O)CS(=O)(=O)N1CC[C@H](NC(=O)c2cc(C3CC3)on2)C[C@H]1C [compound 320, ethyl 2-(((2R,4S)-4-(5-cyclopropylisoxazole-3-carboxamido)-2-methylpiperidin-1-yl)sulfonyl)acetate] | > 10 |
| N[C@H](Cc1ccc(O)cc1)CN1CCC(NC(=O)c2cc(C3CC3)on2)CC1 [compound 79, (R)-N-(1-(2-amino-3-(4-hydroxyphenyl)propyl)piperidin-4-yl)-5-cyclopropylisoxazole-3-carboxamide] | 20.4 |
| CC(C)(C)C1CC(NC(=O)c2cc(C3CC3)on2)CCN1C(=O)CCCN (stereo not drawn) [compound 219, N-(1-(4-aminobutanoyl)-2-(tert-butyl)piperidin-4-yl)-5-cyclopropylisoxazole-3-carboxamide] | 6.32 |
| C[C@@H]1CC(NC(=O)c2cc(C3CC3)on2)CCN1C(=O)[C@H]1C[C@@H](N)C1 (stereo partly drawn) [compound 87, N-((2R)-1-((1s,3S)-3-aminocyclobutane-1-carbonyl)-2-methylpiperidin-4-yl)-5-cyclopropylisoxazole-3-carboxamide] | 3.25 |
| C[C@H]1CN(C(=O)CN)CCC1NC(=O)c1cc(C2CC2)on1 (stereo partly drawn) [compound 49, 5-cyclopropyl-N-((3S)-1-glycyl-3-methylpiperidin-4-yl)isoxazole-3-carboxamide] | 37.2 |
| C[C@@H]1CC(NC(=O)c2cc(C3CC3)on2)CCN1C(=O)[C@H]1C[C@H](N)C1 (stereo partly drawn) [compound 97, N-((2R)-1-((1r,3R)-3-aminocyclobutane-1-carbonyl)-2-methylpiperidin-4-yl)-5-cyclopropylisoxazole-3-carboxamide] | 0.779 |
| C[C@@H](N)CC(=O)NC[C@@H](Cc1ccc(O)c(I)c1)C(=O)N1CCC(NC(=O)c2cc(C3CC3)on2)CC1 [compound 44, N-(1-((R)-3-((R)-3-aminobutanamido)-2-(4-hydroxy-3-iodobenzyl)propanoyl)piperidin-4-yl)-5-cyclopropylisoxazole-3-carboxamide] | 13.8 |
| C[C@@H]1C[C@@H](NC(=O)c2cc(C3CC3)on2)CCN1S(=O)(=O)CC(F)(F)F [compound 186, 5-cyclopropyl-N-((2R,4S)-2-methyl-1-((2,2,2-trifluoroethyl)sulfonyl)piperidin-4-yl)isoxazole-3-carboxamide] | > 10 |
| N[C@@H](Cc1ccc(O)cc1)C(=O)N1CCC(NC(=O)c2cc(C3CC3)on2)CC1 [compound 3, N-(1-(L-tyrosyl)piperidin-4-yl)-5-cyclopropylisoxazole-3-carboxamide] | 0.486 |
| NC[C@H](Cc1ccc(O)cc1)C(=O)N1CCC(NC(=O)c2cc(C3CC3)on2)CC1 [compound 27, (S)-N-(1-(3-amino-2-(4-hydroxybenzyl)propanoyl)piperidin-4-yl)-5-cyclopropylisoxazole-3-carboxamide] | 0.342 |

The remaining lines, values ahead:

| IC50 [µM] | SMILES |
| --- | --- |
| 5.87 | C[C@H]1C[C@H](NC(=O)c2cc(C3CC3)on2)CCN1C(=O)c1ccc(C(C)(C)N)cc1 [compound 369, N-((2S,4R)-1-(4-(2-aminopropan-2-yl)benzoyl)-2-methylpiperidin-4-yl)-5-cyclopropylisoxazole-3-carboxamide] |
| > 10 | N[C@H]1CC[C@H](C(=O)N2CC[C@@H](NC(=O)c3cc(C4CC4)on3)C[C@@H]2Cc2ccccc2)CC1 [compound 389, N-((2S,4R)-1-((1r,4S)-4-aminocyclohexane-1-carbonyl)-2-benzylpiperidin-4-yl)-5-cyclopropylisoxazole-3-carboxamide] |
| 5.76 | COC(=O)C1CN(C(=O)CCCN)CC(C)C1NC(=O)c1cc(C2CC2)on1 (stereo not drawn) [compound 471, methyl 1-(4-aminobutanoyl)-4-(5-cyclopropylisoxazole-3-carboxamido)-5-methylpiperidine-3-carboxylate] |
| 0.323 | C[C@H]1C[C@H](NC(=O)c2cc(C3CC3)on2)CCN1S(=O)(=O)c1cccc(C#N)c1 [compound 380, N-((2S,4R)-1-((3-cyanophenyl)sulfonyl)-2-methylpiperidin-4-yl)-5-cyclopropylisoxazole-3-carboxamide] |
| > 10 | C[C@H]1C[C@H](NC(=O)c2cc(C3CC3)on2)CCN1C(=O)c1ccc2[nH]cnc2c1 [compound 426, N-((2S,4R)-1-(1H-benzo[d]imidazole-5-carbonyl)-2-methylpiperidin-4-yl)-5-cyclopropylisoxazole-3-carboxamide] |
| > 10 | CC(C)OCCS(=O)(=O)N1CC[C@@H](NC(=O)c2cc(C3CC3)on2)C[C@@H]1C [compound 394, 5-cyclopropyl-N-((2S,4R)-1-((2-isopropoxyethyl)sulfonyl)-2-methylpiperidin-4-yl)isoxazole-3-carboxamide] |
| 1.46 | C[C@@H](C(=O)N1CC[C@@H](NC(=O)c2cc(C3CC3)on2)C[C@@H]1C)C1CCNCC1 [compound 359, 5-cyclopropyl-N-((2S,4R)-2-methyl-1-((R)-2-(piperidin-4-yl)propanoyl)piperidin-4-yl)isoxazole-3-carboxamide] |
| 2.75 | C[C@H]1C[C@H](NC(=O)c2cc(C3CC3)on2)CCN1C(=O)c1cccc(C(C)(C)N)c1 [compound 366, N-((2S,4R)-1-(3-(2-aminopropan-2-yl)benzoyl)-2-methylpiperidin-4-yl)-5-cyclopropylisoxazole-3-carboxamide] |
| 5.97 | CC(C)CNc1ncccc1S(=O)(=O)N1C2CCCC1CC(NC(=O)c1cc(C3CC3)on1)C2 (stereo not drawn) [compound 473, 5-cyclopropyl-N-(9-((2-(isobutylamino)pyridin-3-yl)sulfonyl)-9-azabicyclo[3.3.1]nonan-3-yl)isoxazole-3-carboxamide] |
| 8.02 | CCCCS(=O)(=O)N1CC[C@@H](NC(=O)c2cc(C3CC3)on2)C[C@@H]1C [compound 347, N-((2S,4R)-1-(butylsulfonyl)-2-methylpiperidin-4-yl)-5-cyclopropylisoxazole-3-carboxamide] |

same assay, conditions: read-out: SMYD3 Biochem IC50*

| IC50 [µM] | SMILES |
| --- | --- |
| 0.01 | C[C@H]1C[C@@H](NC(=O)c2cc(C3CC3)on2)CCN1S(=O)(=O)C[C@@H]1CCCNC1 [compound 875, 5-cyclopropyl-N-((2S,4S)-2-methyl-1-((((R)-piperidin-3-yl)methyl)sulfonyl)piperidin-4-yl)isoxazole-3-carboxamide] |

From patent US10577363B2, “Substituted piperidine compounds” (EPIZYME, INC., priority 2014, dated 2020)
